Laboratory results as given in US20100041760A1, “MONOARYL AMINOTETRALINES” (priority 2008, published 2010).

Assays:
human CRTH2 = biological target: T1, human CRTH2 (Homo sapiens, UniProt Q9Y5Y4); experiment: Human CRTH2 Receptor Binding Assay (whole cell, [3H]ramatroban competition); set-up: expressed in transfected cells; host or cells: CHO-K1 (co-transfected with G-alpha16); conditions: CHO-K1 cells expressing human CRTH2 and G-alpha16; 20 nM [3H]ramatroban; 1 hour, room temperature
T1 sequence (Q9Y5Y4 1-395): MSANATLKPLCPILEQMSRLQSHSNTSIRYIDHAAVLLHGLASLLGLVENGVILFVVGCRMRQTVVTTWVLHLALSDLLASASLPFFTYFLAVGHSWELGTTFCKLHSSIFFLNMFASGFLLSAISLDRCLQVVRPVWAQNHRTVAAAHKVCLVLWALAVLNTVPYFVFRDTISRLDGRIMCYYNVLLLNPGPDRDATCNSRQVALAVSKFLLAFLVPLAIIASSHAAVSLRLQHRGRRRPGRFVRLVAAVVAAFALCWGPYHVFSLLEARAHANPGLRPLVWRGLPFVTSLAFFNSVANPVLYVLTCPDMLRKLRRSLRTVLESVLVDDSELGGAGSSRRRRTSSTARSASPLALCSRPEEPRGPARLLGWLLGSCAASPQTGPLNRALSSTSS
Excerpt: A whole cell receptor binding assay using [^3H]ramatroban as the competing radioactive ligand was employed to evaluate the compound binding activity to human CRTH2. The radioactive ligand [^3H]ramatroban was synthesized according to Sugimoto et. al. (Eur. J. Pharmacol. 524, 30-37, 2005) to a specific activity of 42 Ci/mmol.
A cell line stably expressing human CRTH2 was established by transfecting CHO-K1 cells with two mammalian expression vectors that harbored human CRTH2 and G-alpha16 cDNAs, respectively, using FuGene® 6 transfection reagent (from Roche). Stable clones expressing CRTH2 were selected by staining each clone with BM16 (BD Pharmingen™ from BD Biosciences, a division of Becton, Dickinson and Company), which is a rat monoclonal antibody to human CRTH2. The cells were maintained as monolayer cultures in Ham's F-12 medium containing 10% fetal bovine serum, 100 units/mL penicillin, 100 μg/mL streptomycin, 2 mM glutamine, 0.5 mg/mL G418 (geneticin) for CRTH2, and 0.2 mg/mL hygromycin-B (for G-alpha 16). For whole cell receptor binding assay, the monolayer cells were rinsed once with PBS (phosphate buffered saline), dissociated using ethylenediaminetetraacetate (Versene™ EDTA from Lonza Inc.), and suspended in PBS containing 10 mM MgCl2 and 0.06% BSA (bovine serum albumin) at 1.5×10^6 cells/mL.
The binding reactions (0.2 mL) were performed in 96-well plates at room temperature in PBS containing 1.5×10^5 cells, 10 mM MgCl2, 0.06% BSA, 20 nM [^3H]ramatroban, and test compound at various concentrations. After 1 hour of binding reactions, the cells were harvested on GF™/B filter microplates (microtiter plates with embedded glass fiber from PerkinElmer, Inc.) and washed 5 times with PBS using a Filtermate™ Harvester (a cell harvester that harvests and washes cells from microplates from PerkinElmer, Inc.). The radioactivities bound to the cells were determined using a microplate scintillation counter (TopCount® NXT, from PerkinElmer, Inc.) after adding 50 μL of Microscint™ 20 scintillation fluid (from PerkinElmer, Inc.) to each well of the filter plates. The radioactivity from non-specific binding was determined by replacing compound with 10 μM of 15(R)-15-methyl PGD2 (from Cayman Chemical Company) in the reaction mixtures. The radioactivity bound to the cells in the absence of compound (total binding) was determined by replacing compound with 0.25% of DMSO (dimethyl sulfoxide) in the reaction mixture. Specific binding data were obtained by subtracting the radioactivity of non-specific binding from each binding data.
(§1) The IC50 value is defined as the concentration of the tested compound that is required for 50% inhibition of total specific binding. In order to calculate the IC50 value, the percent inhibition data were determined for 7 concentrations for each compound. The percent inhibition for a compound at each concentration was calculated according to the following formula, [1−(specific binding in the presence of compound)/(total specific binding)]×100. The IC50 value was then obtained by fitting the percent inhibition data to a sigmoidal dose-response (4 parameter logistic) model in the XLfit® software Excel add-in program [from ID Business Solutions Ltd., model 205, where F(x)=(A+(B−A)/(1+((C/x)̂D)))].

[1] = biological target: T2, thromboxane A2 receptor (TP) (Homo sapiens, UniProt P21731); experiment: Human Thromboxane A2 Receptor Binding Assay; conditions: human platelets; 10 nM [3H]SQ29548; 1 hour, room temperature
T2 construct: using human platelets as the source of the receptor; from tissue; host or cells: human platelets (whole platelets, 5x10^7 per well)
T2 sequence (P21731 1-343): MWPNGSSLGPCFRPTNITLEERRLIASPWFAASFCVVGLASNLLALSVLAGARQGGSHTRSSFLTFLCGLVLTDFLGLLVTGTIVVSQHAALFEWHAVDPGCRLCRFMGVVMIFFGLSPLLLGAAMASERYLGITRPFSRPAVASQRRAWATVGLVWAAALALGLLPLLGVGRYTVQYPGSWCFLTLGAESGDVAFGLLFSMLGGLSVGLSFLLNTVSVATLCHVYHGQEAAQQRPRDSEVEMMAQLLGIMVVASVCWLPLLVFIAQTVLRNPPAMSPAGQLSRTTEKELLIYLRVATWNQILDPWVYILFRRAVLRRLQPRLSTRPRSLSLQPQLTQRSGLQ
Excerpt: The thromboxane A2 receptor (TP) plays a key role in hemostasis as its abnormality leads to bleeding disorders. To avoid the potential liability of bleeding disorders, the binding activity of certain compounds of the present invention against TP was monitored by a receptor binding assay using human platelets as the source of the receptor and [^3H]SQ29548 (generically named (5Z)-[5,6-^3H]-7-[(1S,2R,3R,4R)-3-[[2-[(phenylamino)carbonyl]hydrazinyl]methyl]-7-oxabicyclo[2.2.1]hept-2-yl]-5-heptenoic acid, from PerkinElmer Inc.) as the competing radioactive ligand.
The TP binding reactions (0.2 mL) were performed in 96-well plates at room temperature in PBS containing 5×10^7 platelets, 10 mM MgCl2, 0.06% BSA, 10 nM [^3H]SQ29548, and the test compound at various concentrations. After 1 hour of binding reactions, the platelets were harvested on GF/B filter plates (as previously described from PerkinElmer Inc.) and washed 5 times with PBS using a Filtermate™ Harvester (as previously described from PerkinElmer Inc.). The radioactivities bound to the platelets were determined using a microplate scintillation counter (TopCount® NXT, from PerkinElmer Inc.) after adding 50 μL of Microscint™ 20 scintillation fluid (from PerkinElmer Inc.) to each well of the filter plates. The radioactivity from non-specific binding was determined by replacing the compound with 10 μM of ramatroban (BAY-u3405, from Cayman Chemical Company) in the reaction mixtures. The radioactivity bound to the platelets in the absence of compound (total binding) was determined by replacing the compound with 0.25% of DMSO in the reaction mixture. Specific binding data were obtained by subtracting the radioactivity of non-specific binding from each binding data.
as §1

| SMILES | IC50 (human CRTH2) [nM] | IC50 [1] [nM] |
| --- | --- | --- |
| CC(C)Oc1cc(C(F)(F)F)cc(S(=O)(=O)N(C)[C@@H]2CCCc3c(OCC(=O)O)cccc32)c1 [Example 9-1, {(R)-5-[(3-isopropoxy-5-trifluoromethyl-benzenesulfonyl)-methyl-amino]-5,6,7,8-tetrahydro-naphthalen-1-yloxy}-acetic acid] | 147 | > 10000 |
| Cc1cc(C)cc(S(=O)(=O)N[C@@H]2CCCc3c(OCC(=O)O)cccc32)c1 [Example 10-4, [(R)-5-(3,5-dimethyl-benzenesulfonylamino)-5,6,7,8-tetrahydro-naphthalen-1-yloxy]-acetic acid] | 310 | 8180 |
| CC1(c2cc(C(F)(F)F)cc(S(=O)(=O)N[C@@H]3CCCc4c(OCC(=O)O)cccc43)c2)CC1 [Example 10-7, {(R)-5-[3-(1-methyl-cyclopropyl)-5-trifluoromethyl-benzenesulfonylamino]-5,6,7,8-tetrahydro-naphthalen-1-yloxy}-acetic acid] | 18.4 | > 10000 |
| CC(C)(C)c1cc(C(C)(C)C)cc(S(=O)(=O)N[C@@H]2CCCc3c(OCC(=O)O)cccc32)c1 [Example 10-8, [(R)-5-(3,5-di-tert-butyl-benzenesulfonylamino)-5,6,7,8-tetrahydro-naphthalen-1-yloxy]-acetic acid] | 31 | > 10000 |

More lines, in order of falling IC50 (human CRTH2), values ahead:

| IC50 (human CRTH2) [nM] | IC50 [1] [nM] | SMILES |
| --- | --- | --- |
| 18 | > 10000 | COc1cc(C(F)(F)F)cc(S(=O)(=O)N[C@@H]2CCCc3c(OCC(=O)O)cccc32)c1 [Example 10-10, [(R)-5-(3-methoxy-5-trifluoromethyl-benzenesulfonylamino)-5,6,7,8-tetrahydro-naphthalen-1-yloxy]-acetic acid] |
| 13.5 | > 10000 | CC(C)c1cc(C(F)(F)F)cc(S(=O)(=O)N[C@@H]2CCCc3c(OCC(=O)O)cccc32)c1 [Example 10-6, [(R)-5-(3-isopropyl-5-trifluoromethyl-benzenesulfonylamino)-5,6,7,8-tetrahydro-naphthalen-1-yloxy]-acetic acid] |
| 9 | > 10000 | CS(=O)(=O)c1cc(S(C)(=O)=O)cc(S(=O)(=O)N[C@@H]2CCCc3c(OCC(=O)O)cccc32)c1 [Example 10-9, [(R)-5-(3,5-bis-methanesulfonyl-benzenesulfonylamino)-5,6,7,8-tetrahydro-naphthalen-1-yloxy]-acetic acid] |
| 9 | > 10000 | O=C(O)COc1cccc2c1CCC[C@H]2NS(=O)(=O)c1cc(Br)cc(C(F)(F)F)c1 [Example 10-11, [(R)-5-(3-bromo-5-trifluoromethyl-benzenesulfonylamino)-5,6,7,8-tetrahydro-naphthalen-1-yloxy]-acetic acid] |
| 6.3 | > 10000 | O=C(O)COc1cccc2c1CCC[C@H]2NS(=O)(=O)c1cc(C(F)(F)F)cc(C(F)(F)F)c1 [Example 10-3, [(R)-5-(3,5-bis-trifluoromethyl-benzenesulfonylamino)-5,6,7,8-tetrahydro-naphthalen-1-yloxy]-acetic acid] |
| 6 | > 10000 | CC(F)(F)c1cc(C(F)(F)F)cc(S(=O)(=O)N[C@@H]2CCCc3c(OCC(=O)O)cccc32)c1 [Example 10-2, {(R)-5-[3-(1,1-difluoro-ethyl)-5-trifluoromethyl-benzenesulfonylamino]-5,6,7,8-tetrahydro-naphthalen-1-yloxy}-acetic acid] |
